Read-outs that look alike come from different tables or passages of the source. Non-standard residues stand in square brackets, D forms with d. Residues, ends and D or L forms follow the SMILES beside them. pT = C[C@@H](OP(=O)(O)O)[C@H](N)C(=O)O
Key:
Cbk1^Δ730–756–Mob2 = biological target: T1, Cbk1^Δ730–756–Mob2 (Saccharomyces cerevisiae, UniProt P43563+P53894); assay: biochemical; assay type: binding
T1 construct: His6-Cbk1^251–756 was co-expressed with GST-Mob2 (full length or 45–287); His6 (N); made in house
Source text: ND, not determined. […] (PDF) Click here for additional data file.

Cbk1^251-756(F447A)-Mob2 = biological target: T2, Cbk1^251-756(F447A)-Mob2 (Saccharomyces cerevisiae, UniProt P43563+P53894, F447A); assay: biochemical; assay type: binding
T2 construct: His6-Cbk1^251–756 was co-expressed with GST-Mob2 (full length or 45–287); His6 (N); made in house
Protocol: (§1) His6-Cbk1^251–756 was co-expressed with GST-Mob2 (full length or 45–287). Cbk1 kinase domain alone (352–756 or 352–692) was expressed as GST-Cbk1-His6. All constructs were bacterially expressed and purified on a Ni-NTA resin (Qiagen) followed by glutathione Sepharose beads (GE Biosciences). For crystallization, tags were cleaved with TEV protease followed by cation exchange chromatography on a Resource S column. All Cbk1 preparations were subsequently dialyzed into Cbk1 buffer (20 mM Tris-HCl, 150 mM NaCl, 2 mM DTT [pH 8.0]).
(§2) For FP-based binding affinity measurements, different docking peptides (pepAce2: GSGSIIVTTNSANGGYQFP; pepSSD1: TTEQSDFKFP; pepHM: IGYTYSRFDY; pepHM-P: IGYpTYSRFDY) were N-terminally (pepAce2 and pepSSD1) or C-terminally (pepHM and pepHM-P) labeled with carboxyfluorescein (CF) fluorescent dyes.
(§3) Change in the FP signal in direct binding affinity measurements was monitored as a function of increasing concentration of protein with a Synergy H4 (BioTek Instruments) plate reader in 384-well plates. The labeled peptides were at 20 nM in 20 mM Tris (pH 8.0), 100 mM NaCl, 0.05% Brij35P, 2 mM DTT. […] Subsequently, increasing amounts of unlabeled peptide were added, and the FP signal was measured as described earlier for direct titration experiments. The Kd for each unlabeled peptide interaction was determined by fitting the data to a competition binding equation. […]

Cbk1^251-756-Mob2 = biological target: T3, Cbk1^251-756-Mob2 (Saccharomyces cerevisiae, UniProt P43563+P53894); assay: FP direct titration, Cbk1^251-756-Mob2 (WT); assay type: binding
T3 construct: His6-Cbk1^251–756 was co-expressed with GST-Mob2 (full length or 45–287); His6 (N); made in house
T3 sequence (P53894 251-756): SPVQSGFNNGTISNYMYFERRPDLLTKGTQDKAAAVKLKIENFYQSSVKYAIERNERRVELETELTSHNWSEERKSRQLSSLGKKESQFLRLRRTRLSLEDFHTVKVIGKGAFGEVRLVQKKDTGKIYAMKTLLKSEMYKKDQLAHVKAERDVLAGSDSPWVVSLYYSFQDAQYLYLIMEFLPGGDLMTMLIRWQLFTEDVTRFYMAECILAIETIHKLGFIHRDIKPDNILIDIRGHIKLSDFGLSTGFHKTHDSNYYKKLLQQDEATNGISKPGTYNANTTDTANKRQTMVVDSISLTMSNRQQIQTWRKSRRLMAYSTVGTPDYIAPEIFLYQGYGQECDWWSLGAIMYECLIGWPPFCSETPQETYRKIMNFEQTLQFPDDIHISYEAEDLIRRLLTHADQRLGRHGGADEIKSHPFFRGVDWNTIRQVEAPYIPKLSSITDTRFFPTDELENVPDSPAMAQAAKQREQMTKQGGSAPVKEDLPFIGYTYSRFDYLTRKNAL
T3 sequence (P43563 1-287 partner): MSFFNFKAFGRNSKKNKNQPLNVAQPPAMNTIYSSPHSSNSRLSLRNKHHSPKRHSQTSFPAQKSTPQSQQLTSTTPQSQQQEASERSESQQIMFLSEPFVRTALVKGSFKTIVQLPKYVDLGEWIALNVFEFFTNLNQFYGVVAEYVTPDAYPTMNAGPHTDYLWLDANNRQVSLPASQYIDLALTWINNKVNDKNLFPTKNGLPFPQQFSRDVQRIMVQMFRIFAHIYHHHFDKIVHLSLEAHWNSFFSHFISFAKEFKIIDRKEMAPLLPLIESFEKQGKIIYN
Protocol: as §1, §2
Change in the FP signal in direct binding affinity measurements was monitored as a function of increasing concentration of protein with a Synergy H4 (BioTek Instruments) plate reader in 384-well plates. The labeled peptides were at 20 nM in 20 mM Tris (pH 8.0), 100 mM NaCl, 0.05% Brij35P, 2 mM DTT. The resulting binding isotherms were fit to a quadratic binding equation. The affinity of the unlabeled peptides was measured in steady-state competition experiments: 20 nM labeled reporter was mixed with protein samples in a concentration to achieve ~60%–80% complex formation. Subsequently, increasing amounts of unlabeled peptide were added, and the FP signal was measured as described earlier for direct titration experiments. The Kd for each unlabeled peptide interaction was determined by fitting the data to a competition binding equation. Titration experiments were carried out in triplicate, and the average FP signal was used for fitting the data with OriginPro 7.

Cbk1^251-756(F699A)-Mob2 = biological target: T4, Cbk1^251-756(F699A)-Mob2 (Saccharomyces cerevisiae, UniProt P43563+P53894, F699A); assay: biochemical; assay type: binding
T4 construct: His6-Cbk1^251–756 was co-expressed with GST-Mob2 (full length or 45–287); His6 (N); made in house
Protocol: as §1, §2, §3

Cbk1 = assay: In vitro kinase assay resolved by SDS-PAGE, Ace2/Ssd1 fragments; assay type: biochemical, Saccharomyces cerevisiae; conditions: Cbk1^352–756 kinase domain (S5D)
Protocol: Kinase assays resolved by SDS-PAGE were conducted with GST-Ace2 or GST-Ssd1 fusions. Reactions contained 1–5 μM substrate, 100–250 nM Cbk1, 5 mM MnCl2, 2 mM DTT, 20 μM ATP, 10 μCi γ-^32P-ATP in Cbk1 buffer. Samples were removed at indicated time points and quenched with SDS-PAGE buffer, followed by SDS-PAGE separation. ^32P was visualized using a Storm phosphorimager (GE Biosciences) and quantified using ImageQuant software.

T2 sequence (P53894 251-756 F447A, one chain of several): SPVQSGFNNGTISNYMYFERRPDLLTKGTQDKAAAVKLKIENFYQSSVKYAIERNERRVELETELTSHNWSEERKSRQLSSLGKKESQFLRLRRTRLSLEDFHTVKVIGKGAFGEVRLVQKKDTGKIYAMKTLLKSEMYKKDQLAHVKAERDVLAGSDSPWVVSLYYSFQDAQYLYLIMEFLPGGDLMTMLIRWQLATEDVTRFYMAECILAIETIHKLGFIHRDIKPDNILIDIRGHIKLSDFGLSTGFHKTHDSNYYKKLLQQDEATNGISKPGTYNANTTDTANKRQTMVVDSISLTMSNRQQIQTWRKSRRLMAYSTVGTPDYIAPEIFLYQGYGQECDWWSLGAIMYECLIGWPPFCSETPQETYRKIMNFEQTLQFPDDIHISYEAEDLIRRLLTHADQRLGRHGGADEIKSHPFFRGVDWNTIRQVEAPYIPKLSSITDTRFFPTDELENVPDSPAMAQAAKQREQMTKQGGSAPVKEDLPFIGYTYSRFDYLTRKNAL
T4 sequence (P53894 251-756 F699A, one chain of several): as the sequence (P53894 251-756 F447A, one chain of several) above, with A197F, F449A counted along it

Molecule: CC[C@H](C)[C@H](N)C(=O)NCC(=O)N[C@@H](Cc1ccc(O)cc1)C(=O)N[C@H](C(=O)N[C@@H](Cc1ccc(O)cc1)C(=O)N[C@@H](CO)C(=O)N[C@@H](CCCNC(=N)N)C(=O)N[C@@H](Cc1ccccc1)C(=O)N[C@@H](CC(=O)O)C(=O)N[C@@H](Cc1ccc(O)cc1)C(=O)O)[C@@H](C)OP(=O)(O)O [pepHM-P] (H-IGY[pT]YSRFDY-OH)
- Kd (Cbk1^Δ730–756–Mob2): ~6 µM
- Kd (Cbk1^251-756(F447A)-Mob2): 33 µM

Molecule: CC[C@H](C)[C@H](NC(=O)[C@H](CO)NC(=O)CNC(=O)[C@H](CO)NC(=O)CN)C(=O)N[C@H](C(=O)N[C@H](C(=O)N[C@H](C(=O)N[C@H](C(=O)N[C@@H](CC(N)=O)C(=O)N[C@@H](CO)C(=O)N[C@@H](C)C(=O)N[C@@H](CC(N)=O)C(=O)NCC(=O)NCC(=O)N[C@@H](Cc1ccc(O)cc1)C(=O)N[C@@H](CCC(N)=O)C(=O)N[C@@H](Cc1ccccc1)C(=O)N1CCC[C@H]1C(=O)O)[C@@H](C)O)[C@@H](C)O)C(C)C)[C@@H](C)CC [pepAce2] (H-GSGSIIVTTNSANGGYQFP-OH)
- Kd (Cbk1^251-756-Mob2; CF-labeled peptide 20 nM, Tris pH 8.0, triplicate, read-out: peptide binding affinity (table in Fig 5C)): 5 µM
- Kd (Cbk1^251-756-Mob2; labeled synthetic peptides, Cbk1–Mob2 (S5H Fig), read-out: Kd): ~6 µM
- Kd (Cbk1^251-756(F699A)-Mob2): 5 µM

B1: Ace2^102–306: Ace2 fragment, kinase substrate containing docking motif (protein, UniProt P21192 102-306, looked up, fragment)
chain: ENNKVSHYSKKSMSSHKRGLSGTAIFGFLGHNKTLSISSLQQSILNMSKDPQPMELINELGNHNTVKNNNDDFDHIRENDGENSYLSQVLLKQQEELRIALEKQKEVNEKLEKQLRDNQIQQEKLRKVLEEQEEVAQKLVSGATNSNSKPGSPVILKTPAMQNGRMKDNAIIVTTNSANGGYQFPPPTLISPRMSNTSINGSPSR
- enhancement of phosphorylation by docking motif (Cbk1): 100 fold

— article PMC4428629, “The Structure of an NDR/LATS Kinase–Mob Complex Reveals a Novel Kinase–Coactivator System and Substrate Docking Mechanism” (PLoS Biology, 2015)
